# Experimental data from patent publication US5354892A, “Biaryl substituted 4-amino-butyric acid amides” (Ciba-Geigy Corporation, priority 1993, dated 1994).
# Assays:
# [1] = system: DOCA-salt hypertensive rats; assay: Antihypertensive effect in DOCA-salt hypertensive rats; format: in vivo; settings: DOCA-salt hypertensive rat model; 30 mg/kg p.o., administered in PEG 400
# Experimental: The antihypertensive effect can be determined in desoxycorticosterone acetate (DOCA)-salt hypertensive rats.
# DOCA-salt hypertensive rats (280-380 g) are prepared by the standard method. Rats underwent a unilateral nephrectomy and one week later are implanted with silastic pellets containing 100 mg/kg of DOCA. The rats are maintained on 1% NaCl/0.2% KCl drinking water for three to five weeks until sustained hypertension is established. The antihypertensive activity is evaluated at this time.
# Two days before an experiment, the rats are anesthetized with methoxyflurane and instrumented with catheters in the femoral artery to measure arterial blood pressure. Forty-eight hours later, baseline arterial pressure and heart rate are recorded during a 1 hour period. The test compound (30 mg/kg p.o.) or vehicle is then administered and the same cardiovascular parameters are monitored for an additional 5 hours.
# [2] = system: rat plasma ANF concentration; assay: Effect on rat plasma ANF concentration (ANF-infused conscious rats, radioimmunoassay); format: in vivo; settings: doses of about 1-30 mg/kg p.o., administered in 10% ethanol/PEG 400, ANF infusion 450 ng/kg/min i.v.
# Experimental: The effect of the compounds of the invention on rat plasma ANF concentration can be determined as follows:
# Male Sprague-Dawley rats (275-390 g) are anesthetized -with ketamine (150 mg/kg)/acepromazine (10%) and instrumented with catheters in the femoral artery and vein to obtain blood samples and infuse ANF. respectively. The rats are tethered with a swivel system and are allowed to recover for 24 hours before being studied in the conscious, unrestrained state.
# In this assay, plasma ANF levels are determined in the presence and absence of NEP inhibition. On the day of study, all rats are infused continuously with ANF at 450 ng/kg/min. i.v. for the entire 5 hours of the experiment. Sixty minutes after beginning the infusion, blood samples for baseline ANF measurements are obtained (time 0) and the rats are then randomly divided into groups treated with the test compound or vehicle. Additional blood samples are taken 30, 60, 120, 180 and 240 minutes after administration of the test compound.
# Plasma concentrations are determined by a specific radioimmunoassay. […] The supernatant is decanted and the pellets counted in a gamma counter. […] Plasma ANF levels are expressed as a percent of those measured in vehicle-treated animals which received ANF alone (450 ng/kg/min i.v.).
smiles,measurement,setting,value
CCOC(=O)[C@H](C)C[C@@H](Cc1ccc(-c2ccccc2)cc1)NC(=O)CCC(=O)O [N-(3-carboxy-1-oxopropyl)-(4S)-(p-phenylphenylmethyl)-4-amino-2R-methylbutanoic acid ethyl ester],blood pressure,[1],significant reduction in blood pressure
same,plasma ANF levels,[2],significant increases in plasma ANF levels
